Where only a bound is given, the exact number is not on record here.

Series [1] concerns IL-6 levels in human whole blood stimulated with a TLR2 agonist. Nature of the series: IRAK4 Whole Blood Assay (lipoteichoic acid/TLR2-stimulated IL-6). The format is cell-based. As to conditions: lipoteichoic acid 10 μg/mL, IL-6 readout. The procedure, abridged:
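IL-6 was quantified by cytometric bead assay in supernatants of human blood (ACD-A) stimulated for 5 h with lipoteichoic acid at 10 μg/mL final. Compound exposure preceded stimulation for 60 min at 37 °C, 5% CO2.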

In the next series the target is IRAK4 (Homo sapiens (Human), UniProt Q9NWZ3). The experiment in a line: IRAK4 Inhibition Assay. It counts as biochemical. As to conditions: ATP 500 μM; IRAK4 0.6 nM. The procedure, abridged: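 Readout: electrophoretic (LabChip) separation of fluorescent peptide substrate from phosphorylated product after EDTA quench. Reactions ran 60 min at room temperature with 0.6 nM IRAK4, 1.5 μM peptide and 500 μM ATP; inhibition referenced to no-enzyme (100%) and vehicle (0%) controls.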
IRAK4, sequence (Q9NWZ3 whole entry): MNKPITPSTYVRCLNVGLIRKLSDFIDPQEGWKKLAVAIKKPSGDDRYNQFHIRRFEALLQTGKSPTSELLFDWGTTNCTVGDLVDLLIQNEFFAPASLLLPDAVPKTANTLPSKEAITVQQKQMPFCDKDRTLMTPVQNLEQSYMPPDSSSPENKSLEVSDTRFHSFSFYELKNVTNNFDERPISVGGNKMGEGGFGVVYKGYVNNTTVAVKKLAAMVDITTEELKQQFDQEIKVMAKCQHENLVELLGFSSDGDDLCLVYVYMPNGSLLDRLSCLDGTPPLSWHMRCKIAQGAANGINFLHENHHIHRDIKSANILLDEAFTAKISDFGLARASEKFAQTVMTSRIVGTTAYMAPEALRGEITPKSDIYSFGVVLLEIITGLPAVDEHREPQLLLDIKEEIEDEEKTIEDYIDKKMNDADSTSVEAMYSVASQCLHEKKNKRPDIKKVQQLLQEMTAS

Another series is described as follows: Caco Permeability Assay. The format is in vitro ADME. As to conditions: human, Caco-2, Caco-2 cells, 3 μM compound.

As to `CC(C)(O)[C@H](F)CNC(=O)c1cnc(-c2cnn3cc(Cl)cnc23)cc1NCCCO` [Example 164, (R)-6-(6-chloropyrazolo[1,5-a]pyrimidin-3-yl)-N-(2-fluoro-3-hydroxy-3-methylbutyl)-4-((3-hydroxypropyl)amino)nicotinamide], the EC50 in series [1] (Homo sapiens) was 270 nM. Further, the IC50 at IRAK4 was 11 nM. The compound also registered a Papp at 2 h, 3 µM in “Caco Permeability Assay” of less than 1.5 ×10⁻⁶ cm/s.

With `CC(C)Nc1cc(-c2cnn3cc(C#N)cnc23)ncc1C(=O)NCCC(C)(C)C#N` [Example 169, N-(3-cyano-3-methylbutyl)-6-(6-cyanopyrazolo[1,5-a]pyrimidin-3-yl)-4-(isopropylamino)nicotinamide], the midpoint of the response in series [1] (Homo sapiens), the EC50, lay at 650 nM. For the same compound, the IC50 at IRAK4 was 8 nM. In the series “Caco Permeability Assay”, this compound yielded a Papp at 2 h, 3 µM of 14.2 ×10⁻⁶ cm/s.

Consider `CC(C)(O)[C@H](F)CNC(=O)c1cnc(-c2cnn3cc(C#N)cnc23)cc1NCC(F)F` [Example 171, (R)-6-(6-cyanopyrazolo[1,5-a]pyrimidin-3-yl)-4-((2,2-difluoroethyl)amino)-N-(2-fluoro-3-hydroxy-3-methylbutyl)nicotinamide], for which a half-maximal effect in series [1] (Homo sapiens) (EC50) was put at 360 nM. Besides, the IC50 on IRAK4 was 6 nM. This compound also returned a Papp at 2 h, 3 µM in the series “Caco Permeability Assay” of 1.9 ×10⁻⁶ cm/s.

Consider `CC(F)(F)CNc1cc(-c2cnn3cc(C#N)cnc23)ncc1C(=O)NC[C@@H](F)C(C)(C)O` [Example 172, (R)-6-(6-cyanopyrazolo[1,5-a]pyrimidin-3-yl)-4-((2,2-difluoropropyl)amino)-N-(2-fluoro-3-hydroxy-3-methylbutyl)nicotinamide], for which the response in series [1] (Homo sapiens) was half-maximal at 460 nM (EC50). Further, on IRAK4, the IC50 turned out to be 4 nM. This compound also had a Papp at 2 h, 3 µM in the series “Caco Permeability Assay” of 4.2 ×10⁻⁶ cm/s.

In series [1], `CC(C)Nc1cc(-c2cnc3cccnn23)ncc1C(=O)NC[C@@H](F)C(C)(C)O` [Example 177, (R)—N-(2-fluoro-3-hydroxy-3-methylbutyl)-6-(imidazo[1,2-b]pyridazin-3-yl)-4-(isopropylamino)nicotinamide] showed an EC50 of 880 nM. The IC50 on IRAK4 came to 10 nM. This compound also had a Papp at 2 h, 3 µM in the series “Caco Permeability Assay” of 12.6 ×10⁻⁶ cm/s.

`CCNc1cc(-c2cnc3cc(Cl)cnn23)ncc1C(=O)NC[C@@H](F)C(C)(C)O` [Example 178, (R)-6-(7-chloroimidazo[1,2-b]pyridazin-3-yl)-4-(ethylamino)-N-(2-fluoro-3-hydroxy-3-methylbutyl)nicotinamide] gave an EC50 in series [1] (Homo sapiens) of 710 nM. Moreover, the IC50 at IRAK4 is 4 nM. In “Caco Permeability Assay”, this compound gave a Papp at 2 h, 3 µM of 21.5 ×10⁻⁶ cm/s.

As to `CCCNc1cc(-c2cnc3cc(Cl)cnn23)ncc1C(=O)NC[C@@H](F)C(C)(C)O` [Example 179, (R)-6-(7-chloroimidazo[1,2-b]pyridazin-3-yl)-N-(2-fluoro-3-hydroxy-3-methylbutyl)-4-(propylamino)nicotinamide], the response in series [1] (Homo sapiens) was half-maximal at 700 nM (EC50). On IRAK4, the IC50 came to 3 nM. For the same compound, the Papp at 2 h, 3 µM in “Caco Permeability Assay” turned out to be 16.8 ×10⁻⁶ cm/s.

`CC(C)(O)[C@H](F)CNC(=O)c1cnc(-c2cnc3cc(Cl)cnn23)cc1NC1CCC1` [Example 180, (R)-6-(7-chloroimidazo[1,2-b]pyridazin-3-yl)-4-(cyclobutylamino)-N-(2-fluoro-3-hydroxy-3-methylbutyl)nicotinamide] displayed an EC50 in series [1] (Homo sapiens) of 930 nM. Also, the IC50 at IRAK4 was 2 nM. The compound also had a Papp at 2 h, 3 µM in the series “Caco Permeability Assay” of 16.5 ×10⁻⁶ cm/s.

Compound `C[C@@H](CO)Nc1cc(-c2cnc3cc(Cl)cnn23)ncc1C(=O)NC[C@@H](F)C(C)(C)O` [Example 181, 6-(7-chloroimidazo[1,2-b]pyridazin-3-yl)-N—((R)-2-fluoro-3-hydroxy-3-methylbutyl)-4-(((S)-1-hydroxypropan-2-yl)amino)nicotinamide] returned an EC50 in series [1] (Homo sapiens) of 100 nM. Also, the IC50 on IRAK4 came out at 3 nM. The compound further gave a Papp at 2 h, 3 µM in “Caco Permeability Assay” of less than 1.5 ×10⁻⁶ cm/s.

With `CC(C)(O)[C@H](F)CNC(=O)c1cnc(-c2cnc3cc(C#N)cnn23)cc1NC1CCC1` [Example 183, (R)-6-(7-cyanoimidazo[1,2-b]pyridazin-3-yl)-4-(cyclobutylamino)-N-(2-fluoro-3-hydroxy-3-methylbutyl)nicotinamide], the EC50 in series [1] (Homo sapiens) stood at 750 nM. Further, the IC50 on IRAK4 was found to be 2 nM. In addition, in the series “Caco Permeability Assay”, the Papp at 2 h, 3 µM turned out to be 8.9 ×10⁻⁶ cm/s.

For `Cc1cnn2c(-c3cc(NC4CC4)c(C(=O)NC[C@@H](F)C(C)(C)O)cn3)cnc2c1` [Example 184, (R)-4-(cyclopropylamino)-N-(2-fluoro-3-hydroxy-3-methylbutyl)-6-(7-methylimidazo[1,2-b]pyridazin-3-yl)nicotinamide], in series [1] (Homo sapiens), the concentration giving a half-maximal response (EC50) came out at 510 nM. In addition, the IC50 at IRAK4 was found to be 5 nM. In addition, the Papp at 2 h, 3 µM in “Caco Permeability Assay” amounted to 3.4 ×10⁻⁶ cm/s.

In turn, `Cc1cnn2c(-c3cc(NC4CCC4)c(C(=O)NC[C@@H](F)C(C)(C)O)cn3)cnc2c1` [Example 185, (R)-4-(cyclobutylamino)-N-(2-fluoro-3-hydroxy-3-methylbutyl)-6-(7-methylimidazo[1,2-b]pyridazin-3-yl)nicotinamide] had an EC50 in series [1] (Homo sapiens) of 820 nM. Moreover, on IRAK4, the IC50 came out at 7 nM. For the same compound, the Papp at 2 h, 3 µM in the series “Caco Permeability Assay” amounted to 4.7 ×10⁻⁶ cm/s.

For the compound `CC(C)Nc1cc(-c2cnc3cc(C#N)cnn23)ncc1C(=O)NCCC(C)(C)O` [Example 186, 6-(7-cyanoimidazo[1,2-b]pyridazin-3-yl)-N-(3-hydroxy-3-methylbutyl)-4-(isopropylamino) nicotinamide], in series [1] (Homo sapiens), the midpoint of the response, the EC50, lay at 250 nM. Moreover, the IC50 on IRAK4 worked out at 5 nM. For the same compound, the Papp at 2 h, 3 µM in “Caco Permeability Assay” is 12.2 ×10⁻⁶ cm/s.

Regarding `CCNc1cc(-c2cnc3cc(C#N)cnn23)ncc1C(=O)NC[C@@H](F)C(C)(C)O` [Example 188, (R)-6-(7-cyanoimidazo[1,2-b]pyridazin-3-yl)-4-(ethylamino)-N-(2-fluoro-3-hydroxy-3-methylbutyl)nicotinamide], the EC50 in series [1] (Homo sapiens) was determined as 240 nM. Moreover, the IC50 at IRAK4 was 5 nM. This compound also had a Papp at 2 h, 3 µM in “Caco Permeability Assay” of 6.7 ×10⁻⁶ cm/s.

For `CC(C)(F)[C@H](F)CNC(=O)c1cnc(-c2cnc3cc(Cl)cnn23)cc1NC1COC1` [Example 189, (R)-6-(7-chloroimidazo[1,2-b]pyridazin-3-yl)-N-(2,3-difluoro-3-methylbutyl)-4-(oxetan-3-ylamino)nicotinamide], in series [1] (Homo sapiens), the EC50 amounted to 490 nM. Also, on IRAK4, the IC50 came to 7 nM. Moreover, the Papp at 2 h, 3 µM in “Caco Permeability Assay” was 31.2 ×10⁻⁶ cm/s.

In series [1] (Homo sapiens), `CC(C)(O)[C@H](F)CNC(=O)c1cnc(-c2cnc3cc(Cl)cnn23)cc1NCCC(F)(F)F` [Example 190, (R)-6-(7-chloroimidazo[1,2-b]pyridazin-3-yl)-N-(2-fluoro-3-hydroxy-3-methylbutyl)-4-((3,3,3-trifluoropropyl)amino)nicotinamide] showed an EC50 of 610 nM. Also, the IC50 at IRAK4 worked out at 6 nM. The Papp at 2 h, 3 µM in the series “Caco Permeability Assay” was 15.3 ×10⁻⁶ cm/s.

With `CC(C)(C)CCNC(=O)c1cnc(-c2cnc3cc(Cl)cnn23)cc1NC1COC1` [Example 192, 6-(7-chloroimidazo[1,2-b]pyridazin-3-yl)-N-(3,3-dimethylbutyl)-4-(oxetan-3-ylamino)nicotinamide], in series [1] (Homo sapiens), the EC50 was 500 nM. In addition, the IC50 on IRAK4 came out at 10 nM. Moreover, the Papp at 2 h, 3 µM in “Caco Permeability Assay” came to 29.9 ×10⁻⁶ cm/s.

Take `CC(C)Nc1cc(-c2cnc3cc(C#N)cnn23)ncc1C(=O)NC[C@H](F)C(C)(C)O` [Example 194, (S)-6-(7-cyanoimidazo[1,2-b]pyridazin-3-yl)-N-(2-fluoro-3-hydroxy-3-methylbutyl)-4-(isopropylamino)nicotinamide]: in series [1] (Homo sapiens), the response was half-maximal at 230 nM (EC50). Further, at IRAK4, the IC50 was found to be 8 nM. This compound also came in with a Papp at 2 h, 3 µM in “Caco Permeability Assay” of 4.2 ×10⁻⁶ cm/s.

The record behind these values is patent US10618903B2, “Heteroaryl substituted aminopyridine compounds” (BRISTOL-MYERS SQUIBB COMPANY, priority 2015, dated 2020).
